Source: patent US20190382839A1, “[…]” (Bayer Pharma Aktiengesellschaft, priority 2016, published 2019)
Like-named read-outs stand apart in the source and are kept apart here.

Test system: NHL patients (FL, MZL, MCL, DLBCL, transformed indolent lymphoma, CLL)
Text: Best response status and progression-free survival (hereinafter referred to as “PFS”) from independent review assessment were used for gene expression analysis. A total number of 24 patients including 3 complete responders, 1 confirmed (hereinafter referred to as “CR”) and 2 unconfirmed (hereinafter referred to as “CRu”) and 5 partial responders (hereinafter referred to as “PR”), 11 stable diseases (hereinafter referred to as “SD”) and 5 progressive diseases (hereinafter referred to as “PD”) with follicular lymphoma (hereinafter referred to as “FL”), marginal zone lymphoma (hereinafter referred to as “MZL”), mantle cell lymphoma (“MCL”), diffuse large B-cell lymphoma (hereinafter referred to as “DLBCL”), transformed indolent lymphoma or CLL who had baseline RNA expression profiling data of sufficient quantity and quality were used for gene expression analysis as listed in Table 1 (given in the experimental section).
Bioinformatics and statistical analyses were done for all 24 NHL patients. […] For GSEA, 34 gene sets (vide Tables 2 and 3) sharing key biological function/process in apoptosis, B-cell receptor (hereinafter referred to as “BCR”) signaling, IL6/JAK/STAT3, cytokine/chemokine, MAPK, MYC, MYD88, NFAT, NFkB, NOTCH, PI3K or tumor microenvironment (refs 3 and 4) were selected and generated.
A weighted gene expression score (hereinafter referred to as “WGS”) reflecting the overall expression level for each gene set was generated from logistic regression and Cox proportional hazards models to assess the association with response status (best-response-WGS) and PFS (PFS-WGS), respectively.
Both the best-response-WGS as well as the PFS-WGS were in turn used in logistic regression or Cox regression models to assess the association of either WGS with the endpoints. Moreover, the raw best-response WGS was used to compute non-cross validated AUC estimates for responder (CR+PR) and non-responder (SD+PD) classifications.

Structure (SMILES): COc1c(OCCCN2CCOCC2)ccc2c1N=C(NC(=O)c1cnc(N)nc1)N1CCN=C21 [copanlisib]
- median PFS (CSTB, median gene expression level as cutoff, first printed group (high expression, shorter PFS)): 74 days
- number of patients with CR (of the 24 analyzable patients): 3
- number of patients with PD (of the 24 analyzable patients): 5
- number of patients with PR (of the 24 analyzable patients): 5
- number of patients with SD (of the 24 analyzable patients): 11
- objective response rate (patients with high BCR pathway WGS compared to low): increased
- objective response rate (patients with high PI3K pathway WGS compared to low): increased
